# Assays:
# Solubility in water = format: physicochemical; conditions: parent compound without salt formation or use of specialized excipients
# Description: A red solution of Compound 3f, 1 M HCl (0.75 mL, 0.75 mmol) and ethanol (1.5 mL) was cooled to 0 deg C. under nitrogen. A solution of 0.060 g of sodium nitrite in 1 mL of water was prepared separately and 0.25 mL (0.22 mmol of sodium nitrite) was added dropwise to the solution containing compound 3f with formation of a dark red-yellow color. The diazotization was monitored using TLC with 75% ethyl acetate-hexanes. Compound 1b (0.042 g, 0.21 mmol) was added after 30 min followed by sodium bicarbonate (0.086 g, 1.0 mmol) and additional ethanol (0.3 mL). The mixture was allowed to warm to 20 deg C., treated with additional sodium bicarbonate (0.073 g, 0.87 mmol) to adjust the pH to 7-8, and allowed to stir for 12 h. The mixture was diluted with ethyl acetate (100 mL) and 0.1 M HCl (5 mL). The aqueous layer was separated and extracted with 20 mL of ethyl acetate. The combined organics were washed with saturated sodium chloride (2×20 mL), and dried over sodium sulfate. The solvent was removed under reduced pressure and the residue purified by silica gel chromatography (40% ethyl acetate-hexanes) to afford Example 3 (0.0256 g, 29% yield over 2 steps). Electrospray MS [M]− 447.2.
# [1] = system: CD34+ CD38− human bone marrow cells; conditions: cited from earlier work
Compound,solubility (Solubility in water) [µM],expansion of multipotent progenitors ([1]; following a 14-day incubation) [fold],enhancement of clonogenic growth ([1]; in response to KL+FL+IL-3+IL-6+EPO) [%]
"CC1=NN(c2ccc(C)c(C)c2)C(=O)/C1=N\Nc1cccc(C2CCCC(C(=O)O)C2)c1O (stereo not drawn) [Example 3, 3-(3′-{2-[1-(3,4-dimethylphenyl)-3-methyl-5-oxo-4,5-dihydro-1H-pyrazol-4-ylidene]hydrazino}-2′-hydroxy-phenyl)cyclohexane-1-carboxylic Acid]",140,–,–
Thrombopoietin [TPO],–,40,≤ 80

# Source: patent US8143287B2, “Thrombopoietin mimetics” (Stategics, Inc., priority 2006, dated 2012)
